According to patent publication US12692238B2, “Substituted pyridazinone herbicides” (FMC CORPORATION, priority 2020, dated 2026):

Assays:
Format in all cases: in vivo
[1] = test system: ragweed (common ragweed, Ambrosia artemisiifolia); test: Test A preemergence, ragweed; conditions: 0 to 100 scale, 10 days
Text: (§1) Seeds of plant species selected from barnyardgrass (Echinochloa crus-galli), blackgrass (Alopecurus myosuroides), corn (Zea mays), foxtail, giant (giant foxtail, Setaria faberi), foxtail, green (green foxtail, Setaria viridis), goosegrass (Eleusine indica), kochia (Bassia scoparia), oat, wild (wild oat, Avena fatua), palmer amaranth (pigweed, palmer, Amaranthus palmeri), redroot pigweed (Amaranthus retroflexus), ragweed (common ragweed, Ambrosia artemisiifolia), ryegrass, Italian (Italian ryegrass, Lolium multiflorum), and soybean (Glycine max) were planted into a blend of loam soil and sand and treated preemergence with a directed soil spray using test chemicals formulated in a non-phytotoxic solvent mixture which included a surfactant.
(§2) At the same time, plants selected from these crop and weed species and also wheat (Triticum aestivum), galium (catchweed bedstraw, Galium aparine) and horseweed (Erigeron canadensis) were planted in pots containing the same blend of loam soil and sand and treated with postemergence applications of test chemicals formulated in the same manner. Plants ranged in height from 2 to 10 cm and were in the one- to two-leaf stage for the postemergence treatment. Treated plants and untreated controls were maintained in a greenhouse for 10 days, after which time all treated plants were compared to untreated controls and visually evaluated for injury. Plant response ratings, summarized in Table A, are based on a 0 to 100 scale where 0 is no effect and 100 is complete control. A dash (-) response means no test result.

kochia (Bassia scoparia) [2] = test: Test A preemergence, kochia; conditions: 0 to 100 scale, 10 days
Text: as §1, §2

[3] = test system: ryegrass, Italian (Italian ryegrass, Lolium multiflorum); test: Test A postemergence, ryegrass, Italian; conditions: 10 days
Text: as §1, §2

[4] = test system: wheat (Triticum aestivum); test: Test A postemergence, wheat; conditions: 10 days
Text: as §1, §2

[5] = test system: ducksalad (Heteranthera limosa); test: Test B flooded paddy test, ducksalad; conditions: 250 g ai/ha, Flood; visually evaluated after 10 to 14 days
Protocol: (§3) Plant species in the flooded paddy test selected from barnyardgrass (Echinochloa crus-galli), ducksalad (Heteranthera limosa), rice (Oryza sativa), and sedge, umbrella (small-flower umbrella sedge, Cyperus difformis) were grown to the 2-leaf stage for testing. At time of treatment, test pots were flooded to 3 cm above the soil surface, treated by application of test compounds directly to the paddy water, and then maintained at that water depth for the duration of the test. Treated plants and controls were maintained in a greenhouse for 10 to 14 days, after which time all species were compared to controls and visually evaluated. Plant response ratings, summarized in Table B, are based on a scale of 0 to 100 where 0 is no effect and 100 is complete control. A dash (-) response means no test result.

[6] = test system: galium (catchweed bedstraw, Galium aparine); test: Test A postemergence, galium; conditions: 10 days
Text: as §1, §2

[7] = test system: barnyardgrass (Echinochloa crus-galli); test: Test A preemergence, barnyardgrass; conditions: 10 days
Text: as §1, §2

[8] = test system: foxtail, giant (giant foxtail, Setaria faberi); test: Test A preemergence, foxtail, giant; conditions: 0 to 100 scale, 10 days
Text: as §1, §2

[9] = test system: redroot pigweed (Amaranthus retroflexus); test: Test A preemergence, redroot pigweed; conditions: 0 to 100 scale, 10 days
Text: as §1, §2

kochia (Bassia scoparia) [10] = test: Test A postemergence, kochia; conditions: 10 days
Text: as §1, §2

[11] = test system: sedge, umbrella (small-flower umbrella sedge, Cyperus difformis); test: Test B flooded paddy test, sedge, umbrella; conditions: 250 g ai/ha, Flood; visually evaluated after 10 to 14 days
Protocol: as §3

[12] = test system: barnyardgrass (Echinochloa crus-galli); test: Test A postemergence, barnyardgrass; conditions: 10 days
Text: as §1, §2

[13] = test system: blackgrass (Alopecurus myosuroides); test: Test A postemergence, blackgrass; conditions: 10 days
Text: as §1, §2

[14] = test system: barnyardgrass (Echinochloa crus-galli); test: Test B flooded paddy test, barnyardgrass; conditions: 250 g ai/ha, Flood; visually evaluated after 10 to 14 days
Protocol: as §3

[15] = test system: ragweed (common ragweed, Ambrosia artemisiifolia); test: Test A postemergence, ragweed; conditions: 10 days
Text: as §1, §2

[16] = test system: ryegrass, Italian (Italian ryegrass, Lolium multiflorum); test: Test A preemergence, ryegrass, Italian; conditions: 0 to 100 scale, 10 days
Text: as §1, §2

corn (Zea mays) = test: Test A postemergence, corn; conditions: 10 days
Text: as §1, §2

[17] = test system: foxtail, giant (giant foxtail, Setaria faberi); test: Test A postemergence, foxtail, giant; conditions: 10 days
Text: as §1, §2

rice (Oryza sativa) = test: Test B flooded paddy test, rice; conditions: 250 g ai/ha, Flood; visually evaluated after 10 to 14 days
Protocol: as §3

[18] = test system: redroot pigweed (Amaranthus retroflexus); test: Test A postemergence, redroot pigweed; conditions: 10 days
Text: as §1, §2

[19] = 31 g ai/ha, postemergence, 0 to 100 scale (0 no effect, 100 complete control)
[20] = Postemergence, 125 g ai/ha, 0 to 100 scale
[21] = 125 g ai/ha, 0 to 100 scale (0 no effect, 100 complete control)
[22] = Postemergence, 31 g ai/ha, 0 to 100 scale

Row | SMILES | Plant response rating, Ragweed ([1]; 31 g ai/ha) | Plant response rating, Ragweed ([1]; 125 g ai/ha) | Plant response rating, Kochia (kochia (Bassia scoparia) [2]; 31 g ai/ha) | Plant response rating, Kochia (kochia (Bassia scoparia) [2]; 125 g ai/ha) | Plant response rating, Ryegrass, Italian [3, 19] | Plant response rating, Ryegrass, Italian [3, 20] | Plant response rating, Wheat [4, 19] | Plant response rating, Wheat [4, 20] | Plant response rating, Ducksalad (0 to 100 scale where 0 is no effect and 100 is complete control) [5] | Plant response rating, Galium [6, 19] | Plant response rating, Galium [6, 20] | Plant response rating, Barnyardgrass ([7]; 31 g ai/ha, 0 to 100 scale) | Plant response rating, Barnyardgrass [7, 21] | Plant response rating, Foxtail, Giant ([8]; 31 g ai/ha) | Plant response rating, Foxtail, Giant ([8]; 125 g ai/ha) | Plant response rating, Pigweed, Redroot ([9]; 31 g ai/ha) | Plant response rating, Pigweed, Redroot ([9]; 125 g ai/ha) | Plant response rating, Kochia (kochia (Bassia scoparia) [10]; [19]) | Plant response rating, Kochia (kochia (Bassia scoparia) [10]; [20]) | Plant response rating, Sedge, Umbrella (0 to 100 scale where 0 is no effect and 100 is complete control) [11] | other results
1 | COc1cc(OC)c2cc3ccc(F)cc3c(-c3c(OCOC(C)=O)c(C)nn(C)c3=O)c2c1 [Compound 25] | 0 | 0 | 0 | 0 | 0 | 0 | 0 | 0 | 0 | 50 | 60 | 0 | 0 | 0 | 0 | 0 | 30 | 0 | 10 | 0 | Plant response rating, Barnyardgrass [12, 19]: 0; Plant response rating, Barnyardgrass [12, 20]: 10; Plant response rating, Blackgrass [13, 19]: 0; Plant response rating, Blackgrass [13, 20]: 10; Plant response rating, Barnyardgrass (0 to 100 scale where 0 is no effect and 100 is complete control) [14]: 0; Plant response rating, Ragweed [15, 19]: 0; Plant response rating, Ragweed [15, 20]: 0; Plant response rating, Ryegrass, Italian ([16]; 31 g ai/ha): 0; Plant response rating, Ryegrass, Italian ([16]; 125 g ai/ha): 0; Plant response rating, Corn (corn (Zea mays); [19]): 0; Plant response rating, Corn (corn (Zea mays); [20]): 20; Plant response rating, Foxtail, Giant [17, 19]: 0; Plant response rating, Foxtail, Giant [17, 20]: 20; Plant response rating, Rice (0 to 100 scale where 0 is no effect and 100 is complete control) (rice (Oryza sativa)): 0; Plant response rating, Pigweed, Redroot [18, 19]: 80; Plant response rating, Pigweed, Redroot [18, 20]: 90
2 | CC(=O)OCOc1c(C)nn(C)c(=O)c1-c1c2ccccc2c(Br)c2ccccc12 [Compound 14] | 90 | 100 | 20 | 30 | 80 | 100 | 0 | 40 | 80 | 100 | 100 | 10 | 80 | 60 | 100 | 100 | 100 | 30 | 60 | 90 | Plant response rating, Barnyardgrass [12, 22]: 30; Plant response rating, Barnyardgrass [12, 20]: 80; Plant response rating, Blackgrass [13, 22]: 20; Plant response rating, Blackgrass [13, 20]: 30; Plant response rating, Barnyardgrass (0 to 100 scale where 0 is no effect and 100 is complete control) [14]: 20; Plant response rating, Ragweed [15, 19]: 90; Plant response rating, Ragweed [15, 20]: 100; Plant response rating, Ryegrass, Italian ([16]; 31 g ai/ha): 80; Plant response rating, Ryegrass, Italian ([16]; 125 g ai/ha): 100; Plant response rating, Corn (corn (Zea mays); [22]): 0; Plant response rating, Corn (corn (Zea mays); [20]): 0; Plant response rating, Foxtail, Giant [17, 22]: 30; Plant response rating, Foxtail, Giant [17, 20]: 90; Plant response rating, Rice (0 to 100 scale where 0 is no effect and 100 is complete control) (rice (Oryza sativa)): 0; Plant response rating, Pigweed, Redroot [18, 19]: 100; Plant response rating, Pigweed, Redroot [18, 20]: 100
